Test system: (single deposited) (rabbit) B-cells
Assay: Co-cultivation of single deposited B-cells with EL-4 B5 feeder cells, quantification of IgG in supernatant by ELISA
Type: cell-based
Protocol: Generally, the 96-well multi well plate in which the co-cultivation was performed was centrifuged after seven days of co-cultivation at 300×g for 5 min. 150 μl supernatant was removed and diluted at a ratio of 2:1 with PBS in a second 96-well multi well plate. The antibody was used at a concentration of 50 ng/ml. If the OD was or exceeded 1 after an incubation time of 5 min. a dilution series of from 0.8 to 108 ng/ml IgG was tested.
Specifically, a mixture of 0.5 μg/ml of biotinylated mouse anti-rabbit IgG antibody (Sigma-Aldrich) and 0.35 μg/ml anti-rabbit IgG HRP conjugate (Sigma-Aldrich) was transferred to 384 well streptavidin coated microtiter plates (MicroCoat Biotechnologie GmbH). Dilutions of B-cell supernatants in PBS supplemented with 0.5% BSA and 0.05% Tween®-20 were added and incubated for 90 min at RT. After repeated washing (6×) with PBST (phosphate buffered saline with 0.2% Tween®-20) buffer the plates were developed with BM Blue® HRP substrate solution and color formation was measured by absorbance at 370 nm. A commercial rabbit IgG (Sigma-Aldrich) was used as a calibration standard.
Single cell sorted B-cells were cultured in 96-well plates with 200 μl/well EL-4 B5 medium with Pansorbin Cells (SAC) (Calbiochem (Merck), Darmstadt, Deutschland), EL-4 B5 cells (5×10^4/well) and rabbit thymocyte supernatant (TSN) or cytokine mix (CM) with PMA, respectively, for 7 days at 37° C. in an atmosphere of 5% CO2 in the incubator. B-cell culture supernatants were removed for screening and the cells harvested immediately for variable region gene cloning or frozen at −80° C. in 100 μl RLT buffer (Qiagen, Hilden, Germany).

[1] = PMA alone, in the absence of cytokines and interleukins

CCCCCCCCCCCCCC(=O)O[C@@H]1[C@@H](C)[C@@]2(O)[C@@H](C=C(CO)C[C@]3(O)C(=O)C(C)=C[C@@H]23)[C@@H]2C(C)(C)[C@]12OC(C)=O [PMA, (1aR,1bS,4aR,7aS,7bS,8R,9R,9aS)-9a-(acetyloxy)-4a,7b-dihydroxy-3-(hydroxymethyl)-1,1,6,8-tetramethyl-5-oxo-1a,1b,4,4a,5,7a,7b,8,9,9a-decahydro-H-cyclopropa[3,4]benzo[1,2-e]azulen-9-yl myristate]
IgG+ wells [% total] (PMA 0.002 ng/ml, 0.1×CM): +
IgG+ wells [% total] (PMA 0.011 ng/ml, 0.1×CM): +
productivity IgG+ [μg/ml] (PMA 0.011 ng/ml, 0.1×CM): +
IgG+ wells [% total] (PMA 0.054 ng/ml, 0.1×CM): ++++
productivity IgG+ [μg/ml] (PMA 0.054 ng/ml, 0.1×CM): +++
Average IgG productivity (PMA 0.095 ng/ml, CM 1x): 1.390 µg/mL
Number of IgG positive wells [% of total] (PMA 0.095 ng/ml, CM 1x): 38.1 % of total
productivity IgG+ [μg/ml] (PMA 0.127 ng/ml, 0.032×CM): +
IgG+ wells [% total] (PMA 0.127 ng/ml, 0.1×CM): ++
productivity IgG+ [μg/ml] (PMA 0.127 ng/ml, 0.1×CM): ++++
IgG+ wells [% total] (PMA 0.225 ng/ml, 0.1×CM): +++++
productivity IgG+ [μg/ml] (PMA 0.225 ng/ml, 0.1×CM): +++++
IgG+ wells [% total] (PMA 0.3 ng/ml, 0.032×CM): ++++
productivity IgG+ [μg/ml] (PMA 0.3 ng/ml, 0.032×CM): +++
IgG+ wells [% total] (PMA 0.3 ng/ml, 0.1×CM): +++++
productivity IgG+ [μg/ml] (PMA 0.3 ng/ml, 0.1×CM): +++++
Average IgG productivity (PMA 0.3 ng/ml, CM 0.01x): 1.931 µg/mL
Number of IgG positive wells [% of total] (PMA 0.3 ng/ml, CM 0.01x): 69.0 % of total
Average IgG productivity (PMA 0.3 ng/ml, CM 0.032x): 3.476 µg/mL
Number of IgG positive wells [% of total] (PMA 0.3 ng/ml, CM 0.032x): 70.2 % of total
Average IgG productivity (PMA 0.3 ng/ml, CM 0.1x): 4.450 µg/mL
Number of IgG positive wells [% of total] (PMA 0.3 ng/ml, CM 0.1x): 67.9 % of total
Average IgG productivity (PMA 0.3 ng/ml, CM 0.32x): 2.662 µg/mL
Number of IgG positive wells [% of total] (PMA 0.3 ng/ml, CM 0.32x): 57.1 % of total
Average IgG productivity (PMA 0.3 ng/ml, CM 1x): 0.720 µg/mL
Number of IgG positive wells [% of total] (PMA 0.3 ng/ml, CM 1x): 17.9 % of total
IgG+ wells [% total] (PMA 0.534 ng/ml, 0.032×CM): ++
productivity IgG+ [μg/ml] (PMA 0.534 ng/ml, 0.032×CM): +++
IgG+ wells [% total] (PMA 0.534 ng/ml, 0.1×CM): +++++
productivity IgG+ [μg/ml] (PMA 0.534 ng/ml, 0.1×CM): +++
IgG+ wells [% total] (PMA 0.712 ng/ml, 0.032×CM): ++
productivity IgG+ [μg/ml] (PMA 0.712 ng/ml, 0.032×CM): +++
IgG+ wells [% total] (PMA 0.712 ng/ml, 0.1×CM): +++
productivity IgG+ [μg/ml] (PMA 0.712 ng/ml, 0.1×CM): ++
IgG+ wells [% total] (PMA 0.949 ng/ml, 0.032×CM): ++++
productivity IgG+ [μg/ml] (PMA 0.949 ng/ml, 0.032×CM): +++++
Average IgG productivity (PMA 0.95 ng/ml, CM 0x): 1.650 µg/mL
Number of IgG positive wells [% of total] (PMA 0.95 ng/ml, CM 0x): 28.6 % of total
Average IgG productivity (PMA 0.95 ng/ml, CM 0.01x): 4.235 µg/mL
Number of IgG positive wells [% of total] (PMA 0.95 ng/ml, CM 0.01x): 69.0 % of total
Average IgG productivity (PMA 0.95 ng/ml, CM 0.032x): 5.340 µg/mL
Number of IgG positive wells [% of total] (PMA 0.95 ng/ml, CM 0.032x): 67.9 % of total
Average IgG productivity (PMA 0.95 ng/ml, CM 0.1x): 1.623 µg/mL
Number of IgG positive wells [% of total] (PMA 0.95 ng/ml, CM 0.1x): 50.0 % of total
Average IgG productivity (PMA 0.95 ng/ml, CM 0.32x): 0.134 µg/mL
Number of IgG positive wells [% of total] (PMA 0.95 ng/ml, CM 0.32x): 23.8 % of total
Average IgG productivity (PMA 0.95 ng/ml, CM 1x): 0.100 µg/mL
Number of IgG positive wells [% of total] (PMA 0.95 ng/ml, CM 1x): 8.3 % of total
IgG+ wells [% total] (PMA 0.95 ng/ml, without CM): +
productivity IgG+ [μg/ml] (PMA 0.95 ng/ml, without CM): +
IgG+ wells [% total] (PMA 1.266 ng/ml, 0.032×CM): +++
productivity IgG+ [μg/ml] (PMA 1.266 ng/ml, 0.032×CM): +++++
IgG+ wells [% total] (PMA 1.688 ng/ml, 0.032×CM): +++++
productivity IgG+ [μg/ml] (PMA 1.688 ng/ml, 0.032×CM): +++++
IgG+ wells [% total] (PMA 1.688 ng/ml, without CM): ++
productivity IgG+ [μg/ml] (PMA 1.688 ng/ml, without CM): +++
IgG+ wells [% total] (PMA 2.25 ng/ml, 0.032×CM): ++++
productivity IgG+ [μg/ml] (PMA 2.25 ng/ml, 0.032×CM): ++++
IgG+ wells [% total] (PMA 2.251 ng/ml, without CM): +++++
productivity IgG+ [μg/ml] (PMA 2.251 ng/ml, without CM): +++++
Average IgG productivity (PMA 3 ng/ml, CM 0.01x): 3.893 µg/mL
Number of IgG positive wells [% of total] (PMA 3 ng/ml, CM 0.01x): 69.0 % of total
Average IgG productivity (PMA 3 ng/ml, CM 0.032x): 3.480 µg/mL
Number of IgG positive wells [% of total] (PMA 3 ng/ml, CM 0.032x): 72.6 % of total
Average IgG productivity (PMA 3 ng/ml, CM 0.1x): 0.363 µg/mL
Number of IgG positive wells [% of total] (PMA 3 ng/ml, CM 0.1x): 35.7 % of total
Average IgG productivity (PMA 3 ng/ml, CM 0.32x): 0.125 µg/mL
Number of IgG positive wells [% of total] (PMA 3 ng/ml, CM 0.32x): 13.1 % of total
Average IgG productivity (PMA 3 ng/ml, CM 1x): 0.351 µg/mL
Number of IgG positive wells [% of total] (PMA 3 ng/ml, CM 1x): 13.1 % of total
IgG+ wells [% total] (PMA 3.999 ng/ml, without CM): +++
productivity IgG+ [μg/ml] (PMA 3.999 ng/ml, without CM): +++
IgG+ wells [% total] (PMA 5.331 ng/ml, without CM): ++++
productivity IgG+ [μg/ml] (PMA 5.331 ng/ml, without CM): +++++
IgG+ wells [% total] (PMA 7.106 ng/ml, without CM): +++++
productivity IgG+ [μg/ml] (PMA 7.106 ng/ml, without CM): ++
numbers of IgG positive wells [1]: comparable
productivity [1]: increased

— patent US12698474B2, “B-cell cultivation method” (priority 2017, dated 2026)
